Laboratory results from US20070117743A1, “New antitumoral compounds” (priority 2003, published 2007).
Where a SMILES comes first, the peptide text is derived from it. Bridges are numbered along the chain shown (N, C = ends). [ ]: non-standard residue; d: D form. The star is where a group is joined. d(aIle) = CC[C@H](C)[C@@H](N)C(=O)O; d(aThr) = C[C@@H](O)[C@@H](N)C(=O)O; Hexanoyl(5-Me) = CC(C)CCCC(=O)*; d(hCys) = N[C@H](CCS)C(=O)O; Orn = NCCC[C@H](N)C(=O)O; Dhb = C/C=C(\N)C(=O)O

Assays:
Format in all cases: cell-based, human
MB-231 = experiment: SRB colorimetric assay of cell growth and viability, MB-231; settings: for TGI (total growth inhibition): MB-231 cells, 48 hours exposure; for GI50: read-out: GI50 (growth inhibition at 50%), MB-231 cells, 48 hours exposure; for CC50: read-out: LC50 (lethal concentration at 50%), MB-231 cells, 48 hours exposure
Text: The finality of this assay is to interrupt the growth of a “in vitro” tumor cell culture by means a continued exhibition of the cells to the sample to be testing.
A colorimetric type of assay, using sulforhodamine B (SRB) reaction has been adapted for a quantitative measurement of cell growth and viability [following the technique described by Philip Skehan, et al. (1990), New colorimetric cytotoxicity assay for anticancer drug screening, J. Natl. Cancer Inst., 82:1107-1112].
This form of the assay employs 96 well cell culture microplates of 9 mm diameter (Faircloth, 1988; Mosmann, 1983). Most of the cell lines are obtained from American Type Culture Collection (ATCC) derived from different human cancer types.
Cells are maintained in RPMI 1640 10% FBS, supplemented with 0.1 g/l penicillin and 0.1 g/l streptomycin sulfate and then incubated at 37° C., 5% CO2 and 98% humidity. For the experiments, cells were harvested from subconfluent cultures using trypsin and resuspended in fresh medium before plating.
Cells are seeded in 96 well microtiter plates, at 5×10^3 cells per well in aliquots of 195 μL medium, and they are allowed to attach to the plate surface by growing in drug free medium for 18 hours. Afterward, samples are added in aliquots of 5 μL in a ranging from 10 to 10^−8 μg/mL, dissolved in DMSO:EtOH:PBS (0.5:0.5:99). After 48 hours exposure, the antitumor effect are measured by the SRB methodology: cells are fixed by adding 50 μL of cold 50% (wt/vol) trichloroacetic acid (TCA) and incubating for 60 minutes at 4° C. Plates are washed with deionized water and dried. One hundred μL of SRB solution (0.4% wt/vol in 1% acetic acid) is added to each microtiter well and incubated for 10 minutes at room temperature. Unbound SRB is removed by washing with 1% acetic acid. Plates are air dried and bound stain is solubilized with Tris buffer. Optical densities are read on a automated spectrophotometric plate reader at a single wavelength of 490 nm.
The values for mean+/− SD of data from triplicate wells are calculated. Some parameters for cellular responses can be calculated: GI=growth inhibition, TGI=total growth inhibition (cytostatic effect) and LC=cell killing (cytotoxic effect).

A-549 = experiment: SRB colorimetric assay of cell growth and viability, A-549; settings: A-549 cells, 48 hours exposure, SRB; for GI50: read-out: GI50 (growth inhibition at 50%); for CC50: read-out: LC50 (lethal concentration at 50%)
HT-29 = experiment: SRB colorimetric assay of cell growth and viability, HT-29; settings: HT-29 cells, 48 hours exposure, SRB; for GI50: read-out: GI50 (growth inhibition at 50%); for CC50: read-out: LC50 (lethal concentration at 50%)

SMILES: C/C=C1\NC(=O)[C@H](Cc2ccccc2)NC(=O)[C@@H](C(C)C)NC(=O)[C@@H]([C@@H](C)CC)NC(=O)[C@H](NC(=O)[C@H](NC(=O)[C@H](CCCN)NC(=O)[C@H]2CCCN2C(=O)[C@H](NC(=O)[C@@H](NC(=O)[C@@H](NC(=O)[C@H](NC(=O)[C@]23CCC(C)(C)C[C@H]2C2=CC[C@@H]4[C@@]5(C)C[C@@H](O)[C@H](O)C(C)(C)[C@@H]5CC[C@@]4(C)[C@]2(C)CC3)C(C)C)[C@@H](C)O)C(C)C)C(C)C)[C@@H](C)CC)[C@@H](C)OC(=O)[C@H](C(C)C)NC1=O [Compound 101, [AM^14]-KF]
- TGI (total growth inhibition) (MB-231): 5.49E−06 Molar
- TGI (total growth inhibition) (A-549): 5.49E−06 Molar
- GI50 (A-549): 5.49 µM
- CC50 (A-549): 5.49 µM
- TGI (total growth inhibition) (HT-29): 4.60E−06 Molar
- GI50 (HT-29): 4.45 µM
- CC50 (HT-29): 4.86 µM

SMILES: C/C=C1\NC(=O)[C@H](Cc2ccccc2)NC(=O)[C@@H](C(C)C)NC(=O)[C@@H]([C@@H](C)CC)NC(=O)[C@H](NC(=O)[C@H](NC(=O)[C@H](CCCN)NC(=O)[C@H]2CCCN2C(=O)[C@H](NC(=O)[C@@H](NC(=O)[C@@H](NC(=O)[C@H](NC(=O)CCCC(C)C)C(C)C)[C@@H](C)O)C(C)C)C(C)C)[C@H](C)CC)[C@@H](C)OC(=O)[C@H](C(C)C)NC1=O [Compound 104, [D-Ile^7]-KF]
- TGI (total growth inhibition) (MB-231): 5.34E−06 Molar
- GI50 (MB-231): 5.09 µM
- CC50 (MB-231): 5.59 µM
- TGI (total growth inhibition) (A-549): 1.13E−06 Molar
- GI50 (A-549): 0.942 µM
- CC50 (A-549): 1.51 µM
- TGI (total growth inhibition) (HT-29): 3.39E−07 Molar
- GI50 (HT-29): 0.314 µM
- CC50 (HT-29): 0.371 µM

SMILES: C/C=C1\NC(=O)[C@H](Cc2ccccc2)NC(=O)[C@@H](C(C)C)NC(=O)[C@@H]([C@@H](C)CC)NC(=O)[C@H](NC(=O)[C@H](NC(=O)[C@H](CCCN)NC(=O)[C@H]2CCCN2C(=O)[C@H](NC(=O)[C@@H](NC(=O)[C@@H](NC(=O)[C@H](N=C(N(C)C)N(C)C)C(C)C)[C@@H](C)O)C(C)C)C(C)C)[C@@H](C)CC)[C@@H](C)OC(=O)[C@H](C(C)C)NC1=O [Compound 103, [[C(═N(CH3)2)^14]-KF]
- TGI (total growth inhibition) (MB-231): 6.83E−06 Molar
- TGI (total growth inhibition) (A-549): 6.83E−06 Molar
- TGI (total growth inhibition) (HT-29): 6.83E−06 Molar

SMILES: C/C=C1\NC(=O)[C@H](Cc2ccccc2)NC(=O)[C@@H](C(C)C)NC(=O)[C@@H]([C@@H](C)CC)NC(=O)[C@H](NC(=O)[C@H](NC(=O)[C@H](CCCN)NC(=O)[C@H]2CCCN2C(=O)[C@H](NC(=O)[C@@H](NC(=O)[C@@H](NC(=O)[C@H](NC(=O)[C@]23CCC(C)(C)C[C@H]2C2=CC[C@@H]4[C@@]5(C)CC[C@H](O)C(C)(C)[C@@H]5CC[C@@]4(C)[C@]2(C)CC3)C(C)C)[C@@H](C)O)C(C)C)C(C)C)[C@@H](C)CC)[C@@H](C)OC(=O)[C@H](C(C)C)NC1=O [Compound 102, [AO^14]-KF]
- TGI (total growth inhibition) (MB-231): 5.54E−06 Molar
- TGI (total growth inhibition) (A-549): 5.54E−06 Molar
- GI50 (A-549): 4.53 µM
- CC50 (A-549): 5.54 µM
- TGI (total growth inhibition) (HT-29): 5.54E−06 Molar
- GI50 (HT-29): 5.54 µM
- CC50 (HT-29): 5.54 µM

SMILES: C/C=C1\NC(=O)[C@H](Cc2ccccc2)NC(=O)[C@@H](C(C)C)NC(=O)[C@@H]([C@@H](C)CC)NC(=O)[C@H](NC(=O)[C@@H](CS)NC(=O)[C@H](CCCN)NC(=O)[C@H]2CCCN2C(=O)[C@H](NC(=O)[C@H](CS)NC(=O)[C@@H](NC(=O)[C@H](NC(=O)CCCC(C)C)C(C)C)[C@@H](C)O)C(C)C)[C@@H](C)OC(=O)[C@H](C(C)C)NC1=O [Compound 107, [D-Cys^7, L-Cys^11]-KF] ({Hexanoyl(5-Me)}-[dV]TC[dV][dP][Orn][dC][d(aThr)][d(aIle)][dV]F[Dhb]V; ester 8-C)
- TGI (total growth inhibition) (MB-231): 6.80E−06 Molar
- TGI (total growth inhibition) (A-549): 6.80E−06 Molar
- GI50 (A-549): 6.8 µM
- CC50 (A-549): 6.8 µM
- TGI (total growth inhibition) (HT-29): 6.80E−06 Molar
- GI50 (HT-29): 6.8 µM
- CC50 (HT-29): 6.8 µM

SMILES: C/C=C1\NC(=O)[C@H](Cc2ccccc2)NC(=O)[C@@H](C(C)C)NC(=O)[C@@H]([C@@H](C)CC)NC(=O)[C@H](NC(=O)[C@@H](CCS)NC(=O)[C@H](CCCN)NC(=O)[C@H]2CCCN2C(=O)[C@@H](CCS)NC(=O)[C@@H](NC(=O)[C@@H](NC(=O)[C@H](NC(=O)CCCC(C)C)C(C)C)[C@@H](C)O)C(C)C)[C@@H](C)OC(=O)[C@H](C(C)C)NC1=O [Compound 109, [D-homoCys^7, D-homoCys^10]-KF] ({Hexanoyl(5-Me)}-[dV]TV[d(hCys)][dP][Orn][d(hCys)][d(aThr)][d(aIle)][dV]F[Dhb]V; ester 8-C)
- TGI (total growth inhibition) (MB-231): 6.26E−06 Molar
- TGI (total growth inhibition) (A-549): 6.26E−06 Molar
- GI50 (A-549): 6.26 µM
- CC50 (A-549): 6.26 µM
- TGI (total growth inhibition) (HT-29): 6.26E−06 Molar
- GI50 (HT-29): 6.26 µM
- CC50 (HT-29): 6.26 µM

SMILES: C/C=C1\NC(=O)[C@H](Cc2ccccc2)NC(=O)[C@@H](C(C)C)NC(=O)[C@@H]([C@@H](C)CC)NC(=O)[C@H](NC(=O)[C@H](NC(=O)[C@H](CCCN)NC(=O)[C@H]2CCCN2C(=O)[C@H](NC(=O)[C@@H](NC(=O)[C@@H](NC(=O)[C@H](NC(=O)CCCC(C)C)C(C)C)[C@@H](C)O)C(C)C)C(C)C)[C@@H](C)CC)[C@@H](C)OC(=O)[C@@H](C(C)C)NC1=O [Compound 110, [D-Val^1]-KF]
- TGI (total growth inhibition) (MB-231): 3.71E−06 Molar
- GI50 (MB-231): 3.2 µM
- CC50 (MB-231): 6.28 µM
- TGI (total growth inhibition) (A-549): 1.13E−06 Molar
- GI50 (A-549): 0.879 µM
- CC50 (A-549): 1.63 µM
- TGI (total growth inhibition) (HT-29): 5.15E−07 Molar
- GI50 (HT-29): 0.408 µM
- CC50 (HT-29): 0.691 µM

SMILES: C/C=C1\NC(=O)[C@H](Cc2ccccc2)NC(=O)[C@@H](C(C)C)NC(=O)[C@@H]([C@@H](C)CC)NC(=O)[C@H](NC(=O)[C@@H](CS)NC(=O)[C@H](CCCN)NC(=O)[C@H]2CCCN2C(=O)[C@@H](CS)NC(=O)[C@@H](NC(=O)[C@@H](NC(=O)[C@H](NC(=O)CCCC(C)C)C(C)C)[C@@H](C)O)C(C)C)[C@@H](C)OC(=O)[C@H](C(C)C)NC1=O [Compound 108, [D-Cys^7, D-Cys^10]-KF] ({Hexanoyl(5-Me)}-[dV]TV[dC][dP][Orn][dC][d(aThr)][d(aIle)][dV]F[Dhb]V; ester 8-C)
- TGI (total growth inhibition) (MB-231): 6.53E−06. Molar
- TGI (total growth inhibition) (A-549): 6.53E−06. Molar
- GI50 (A-549): 6.53 µM
- CC50 (A-549): 6.53 µM
- TGI (total growth inhibition) (HT-29): 6.53E−06. Molar
- GI50 (HT-29): 6.53 µM
- CC50 (HT-29): 6.53 µM
